Data reported in US20260256716A1, “COMPOSITIONS AND METHODS OF USE THEREOF” (Board of Supervisors of Louisiana State University and …, priority 2023, published 2026).
“Also recorded” adds a separate entry of the source.

What was measured:
[1] = test system: phosphorylated myosin light chain; assay: Western blot of phosphorylated myosin light chain (MLC) in ARPE-19 cells under hyperglycemic conditions; type: cell-based, human
Procedure: A Hallmark of Age-Associated Ocular and Neurodegenerative Disorders is Cytoskeletal Alteration and Induction of CONTRACTILE Stress Fiber Formation. Expression and activation via phosphorylation of Myosin Light Chain (MLC), is a biomarker of disease development. ARPE-19 cells and ARPE-19 cells specifying 5-HT2AR knockouts were plated in nutrient rich media (DMEM; 7% FCS) overnight. Cells were fixed, permeabilized, and stained phalloidin and α-phosphorylated-Myosin light chain. Cytoskeletal elements were then visualized by fluorescent microscopy to visualize actin fiber cytoskeletal structures (phalloidin, red) and contractile phosphorylated myosin light chain (green) via fluorescent microscopy. […] ARPE-19 cells were cultured under hyperglycemic conditions in nutrient rich media (DMEM High glucose; 7% FCS) overnight either in the absence or presence of 5-HT2A receptor agonists R-DOI and 2CiBu at 10 nm or 100 nM concentrations. The relative expression of the activated disease biomarker contractile phosphorylated myosin light chain was determined using specific antibodies and western blot analysis. 5-HT2A agonists. […] Therefore, 5-HT2A agonism at low concentrations have the potential to prevent and reverse deleterious cytoskeletal events that can be induced under hyperglycemic conditions, such as in diabetics.
This can be consistent with 2C-iBu being able to regulate IOP and that 5HT2A agonists prevented edema formation and disruption of corneal architecture in a model of herpetic keratitis.

[2] = test system: ARPE cells; assay: Blue light induced mitochondrial fragmentation in ARPE cells (mitotracker green); type: cell-based, human; conditions: 100 nM; 48 hours; hyperglycemic conditions; blue light 400 nm
Procedure: ARPE cells grown under hyperglycemic conditions were plated and mock treated or treated with R-DOI or 2C-iBu at 100 nM. 48 hours post treatment, mitochondria in live cells were visualized by staining mitochondria with mitotracker green (green). Once stained, live ARPE cells were exposed to focused blue light at 400 nm and the ability of drugs to protect against blue light damage-induced mitochondrial fragmentation was assessed.

[3] = test system: A549 cells; assay: Cell viability after cumene peroxide oxidative stress (Hoechst / propidium iodide); type: cell-based
Procedure: A549 cells were treated with the indicated concentrations of R-DOI (panel A) or 2C-iBu (panel B) and subsequently exposed to cumene peroxide to oxidatively stress cells. Cell viability was visualized by staining with Hoescht (Blue) to mark total cells (live plus dead) and propidium iodide (red) to mark dead cells.

[4] = test system: ARPE-19 cells; assay: ATP luciferase assay in ARPE-19 cells; type: cell-based, human
[5] = test system: AMP kinase; assay: AMP kinase activation in treated cells; type: cell-based; conditions: low nM concentrations
[6] = test system: ARPE-19 cells; assay: SA-β-Gal cellular senescence in ARPE-19 cells in nutrient rich media (DMEM); type: cell-based, human; conditions: 10 nM in starvation media overnight, then DMEM 7% FCS 72 hours
Procedure: ARPE-19 cells in nutrient rich media (DMEM; 7% FCS) were seeded overnight prior to being replaced with starvation media (DMEM; 0.5% FCS) containing 10 nM R-DOI or 10 nM M100,907. After overnight incubation in starvation media with drug, cells were swapped to DMEM 7% FCS media for 72-hours. After the 72-hour incubation, cells were fixed and stained for SA-β-Gal for 6-hours. Cells nuclei were then stained with DAPI for total-cell enumeration. SA-β-Gal positive cells, and total cells per frame, were quantified by microscopy.

[7] = test system: ARPE-19 cells; assay: ARPE-19 proliferation (DAPI cell number, fold change in growth); type: cell-based, human; conditions: for cellular replication / proliferation: physiologically relevant serotonin levels, 72 h
Procedure: Specific 5-HT2A Receptor Activation via Model Phenethylamines, like R-DOI. […] ARPE-19 cells were plated in nutrient rich media, DMEM, containing 7% dialyzed FCS and then starved in DMEM media containing 0.5% dialyzed FCS. Cells were then changed to 7% dialyzed FCS DMEM media containing physiolocial relevant levels of serotonin at varying concentrations and grown for 72-hours. Cell numbers were determined through DNA staining with DAPI and fold change in growth was determined from baseline readings at 24-hours. To assess if agonists of the 5HT2A receptor could enhance cell health and proliferation specifically through the 5-HT2A receptor, the model 5-HT2A receptor agonist, R-DOI was added at either 0.1 nM or 1 nM. […] Also, included is a summary of physiological serotonin and 5-HT2A receptor agonist/antagonist outcomes on cellular proliferation. This increase in proliferation promotes the formation of a compact RPE-monolayer which is important for maintaining a healthy blood-retinal barrier and can occur with low dose administration of 5-HT2A receptor agonists.
ARPE-19 cells were plated in nutrient rich media, DMEM, containing 7% dialyzed FCS and then starved in DMEM media containing 0.5% dialyzed FCS. Cells were then changed to 7% dialyzed FCS DMEM media containing physiological relevant levels of serotonin at varying concentrations and grown for 72-hours. Cell numbers were determined through DNA staining with DAPI and fold change in growth was determined from baseline readings at 24-hours. To assess if serotonin enhances cell health and proliferation specifically through the 5-HT2A receptor, the 5-HT2A receptor antagonist, M100,907 at 10 nM was included during serotonin induction.

[8] = test system: ARPE-19 cells; assay: Hyperglycemia induced SA-β-Gal cellular senescence in ARPE-19 cells (HPLM); type: cell-based, human
Procedure: Consistent with Retinal Deterioration by Glucose-Induced Cellular Senescence in the Diabetic Population, Hyperglycemic conditions induce increased disease promoting Cellular Senescence that is abrogated by low nM concentrations of the Representative 5-HT2A Receptor Agonist, R-DOI Returning to Base-line Homeostatic Levels. ARPE-19 cells in physiologically relevant media (HPLM; 7% FCS) were seeded overnight prior to being replaced with starvation media (HPLM 0.5% FCS) containing 10 nM R-DOI. After overnight incubation in starvation media, cells were swapped to media containing diabetic blood glucose levels (HPLM 7% FCS containing 5 mM, 10 mM, 20 mM, or 30 mM glucose) for 72-hours. After the 72-hour incubation, cells were fixed and stained for SA-β-Gal for 6-hours. Cells nuclei were then stained with DAPI for total-cell enumeration. SA-β-Gal positive cells, and total cells per frame, were quantified by microscopy. Pathological/diabetic glucose concentrations induce cellular senescence. 5-HT2A receptor agonism alleviates glucose-induced senescence at diabetic blood glucose levels. […]
Effects of specific phenethylamine 5-HT2A receptor agonists on reduction of Hyperglycemia induced Disease Promoting Cellular Senescence: Inhibition of Cell Senescence and Disease Processes are Drug and Dose Dependent. […] SA-3-Gal positive cells, and total cells per frame, were quantified by microscopy. For each 5-HT2A agonist assessed, the % of senescent cells is expressed relative to the hyperglycemic control. […]
Inhibition of Cell Senescence and Disease Processes are Drug and Dose Dependent. […] SA-β-Gal positive cells, and total cells per frame, were quantified by microscopy. For each 5-HT2A agonist assessed, the % of senescent cells is expressed relative to the hyperglycemic control. […]

[9] = test system: ARPE-19 cells; assay: FACS forward scatter cell size of ARPE-19 cells; type: cell-based, human; conditions: treated overnight, then 4 days in normal media
From the text: Upon initial seeding of potential 5HT2A KD cells there was a readily apparent alteration of normal ARPE cell morphology. Cells appeared flattened, extended, highly attached and enlarged. Each cell line isolate maintained this enlarged and flattened cell morphology as shown to the right and quantified below. […] This markedly altered morphology is present in cells that have begun to undergo changes related to aging, including evolving a senescent or pre-senescent phenotype. Therefore, FACS analysis of 5HT2A KD cells was performed comparing the cell size of Forward Scatter to ARPE-19 cells, treated overnight with Etoposide, an inhibitor of topoisomerase, and a known inducer of cell senescence, and then cultured for 4 days in normal media in the absence of etoposide. […] Further an increase in particles of “cell degranulation” sizing was also observed in all conditions compared to ARPE-19 WT controls.

In the case of `COc1cc(CC(C)C)c(OC)cc1CCN` [2C-iBu, 2,5-Dimethoxy-4-isobutylphenethylamine], the “hyperglycemia induced phosphorylated MLC levels” value ([1]; ARPE-19, DMEM High glucose 7% FCS overnight, 10 nM, western blot) is reported as “suppressed hyperglycemia induced phosphorylated MLC levels”, the “phosphorylation of MLC” value ([1]; WT ARPE-19 in media with hyperglycemic glucose (17.5 mM), low dose, not high doses) is reported as “inhibited” and the “blue light induced mitochondrial fragmentation/damage” value [2] is reported as “Inhibit Blue Light and Oxidative Stress Induced Mitochondrial Fragmentation/Damage”. For the same compound, the “oxidative stress-induced cell death” value [3] was “protected cells from oxidative stress-induced cell death”, the “ATP levels relative to Mock treated ARPE-19 cells” value ([4]; 10 fold dilutions 100 nM to 0.1 nM) was “Increase Mitochondrial Function And ATP Production” and the “production of ATP” value ([4]; ARPE WT cells, 24 h after administration) was “enhanced production of ATP”. The AMP kinase activation [5] was “activation of AMP kinase”.

With `COc1cccc([C@H](O)C2CCN(CCc3ccc(F)cc3)CC2)c1OC` [M100,907, reference compound] the “cellular senescence (SA-β-Gal positive cells)” value [6] was “Increases Proportions of Cellular Senescence” and the serotonin-mediated enhanced replication ([7]; antagonist at 10 nM during serotonin induction) was “abrogated serotonin-mediated enhanced replication”.

With `COc1cc(C(F)(F)F)c(OC)cc1C[C@@H](C)N` [R-DOTFM] the “concentration at which disease is exacerbated” value [8] was ≥ 10 nM and the “hyperglycemia induced cellular senescence relative to hyperglycemic control” value ([8]; 1 uM to 0.1 nM, HPLM 30 mM glucose, 72 hours) was “enhances rather than inhibits Aging-Associated Disease Processes and Cellular Senescence”.

For `NCCc1c[nH]c2ccc(O)cc12` [Serotonin, 5-hydroxytryptamine], the “cellular replication / proliferation” value [7] was “Enhances Cellular Health and Replication”, the “cellular replication / proliferation” value ([7]; listed as 5-HT) was “increase cellular replication; also recorded: increase ARPE-19 Proliferation” and the “cellular replication / proliferation” value ([7]; listed as serotonin) was “enhance cellular replication patterns; also recorded: enhance replication of cells”.

For `COc1cc([C@@H]2c3cc4c(cc3[C@@H](O[C@@H]3O[C@@H]5CO[C@@H](C)O[C@H]5[C@H](O)[C@H]3O)[C@H]3COC(=O)[C@H]23)OCO4)cc(OC)c1O` [etoposide], the “cell size (forward scatter)” value [9] was “increased cell size”.
